Consider one compound from ChEMBL document CHEMBL1201862, “PubChem BioAssay data set” (2004).

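Compound exposure: 48 hours, 5 concentrations, 96-well plates. At the GI50, growth is halved.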 The source made the active and inactive calls. No stated cut-off is given here; in the data, active = GI50 up to about 1.1 µM and inactive = higher.

Among the test systems are DU-145; M14; HT-29; A549; DMS-114; U-251; SR; MOLT-4; SK-MEL-2; SF-268; HOP-62; UACC-257; 786-0; RXF 393; NCI-H226; SK-OV-3; ACHN; HL-60.
Assay in all cases: DTP human tumour cell line panel, 48 h

As to `COc1ccc(/C=C2/C(=O)N(C(=O)c3ccccc3O)N=C2C)cc1`, the GI50 is 192 nM (active) in the assay on DU-145; 16400 nM (inactive) in the assay with M14; 4570 nM (inactive) with HT-29; 175 nM (active) with A549; 117 nM (active) in the assay with DMS-114; 69.2 nM (active) in the assay on U-251. Moreover, the GI50 in the assay with SR was 232 nM (active); with MOLT-4, 244 nM (active); in the assay with SK-MEL-2, 327 nM (active); in the assay on SF-268 it was 202 nM (active); in the assay with HOP-62 it was 356 nM (active); with UACC-257, 442 nM (active). In addition, the GI50 in the assay on 786-0 is 598 nM (active); in the assay on RXF 393, < 44.6 nM (active); in the assay with NCI-H226, 1350 nM (inactive); in the assay with SK-OV-3 it was 78.9 nM (active); in the assay with ACHN it was 41.8 nM (active); in the assay with HL-60 it was 292 nM (active).

The GI50 is the concentration that inhibits growth by half.
